Experimental data: paper PMC6934184, “Selective DNA-PKcs inhibition extends the therapeutic index of localized radiotherapy and chemotherapy” (The Journal of Clinical Investigation, 2019)

Molecular target: T1, BRSK2 (Homo sapiens, UniProt Q8IWQ3)
T1 construct: purchased Thermo Fisher Scientific (Life Technologies) SelectScreen
Assay: SelectScreen LanthaScreen
Format: binding
Details: read-out: % displacement
How it was run: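 Percent values come from Thermo SelectScreen profiling of NU5455, combining activity and binding assays. CSF1R was run in Z'LYTE format at Km app ATP, and CAMK1 in Adapta format with ATP listed at 10.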

T1 sequence (Q8IWQ3 whole entry): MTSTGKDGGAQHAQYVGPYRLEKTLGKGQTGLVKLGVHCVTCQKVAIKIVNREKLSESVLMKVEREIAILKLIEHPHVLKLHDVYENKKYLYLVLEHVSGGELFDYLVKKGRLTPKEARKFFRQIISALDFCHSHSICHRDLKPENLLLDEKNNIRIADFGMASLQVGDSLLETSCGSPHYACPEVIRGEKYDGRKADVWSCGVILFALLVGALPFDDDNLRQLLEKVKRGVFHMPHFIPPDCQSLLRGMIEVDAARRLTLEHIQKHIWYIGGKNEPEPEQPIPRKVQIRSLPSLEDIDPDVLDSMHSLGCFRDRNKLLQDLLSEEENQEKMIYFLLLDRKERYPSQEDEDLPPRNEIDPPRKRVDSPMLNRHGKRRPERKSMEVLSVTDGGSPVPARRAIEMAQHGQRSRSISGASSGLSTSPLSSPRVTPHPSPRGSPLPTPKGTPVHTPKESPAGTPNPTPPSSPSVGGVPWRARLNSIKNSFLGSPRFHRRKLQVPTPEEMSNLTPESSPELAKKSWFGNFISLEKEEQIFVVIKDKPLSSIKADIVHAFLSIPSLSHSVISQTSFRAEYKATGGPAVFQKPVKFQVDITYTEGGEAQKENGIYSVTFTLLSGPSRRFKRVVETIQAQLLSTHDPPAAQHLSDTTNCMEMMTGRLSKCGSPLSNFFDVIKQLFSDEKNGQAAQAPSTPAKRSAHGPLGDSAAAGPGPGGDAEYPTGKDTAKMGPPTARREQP

## CN(C(=O)CN1CCOCC1)c1ccc2sc3c(-c4cccc5c(=O)cc(N6CC7CCC(C6)O7)oc45)cccc3c2c1 [NU5455]
  inhibition at 1 µM: 1.2%
